# Data: patent publication US20050181117A1, “Stent coating method” (Medtronic Vascular, Inc., priority 2003, published 2005)
# Experiment: percent drug eluted over time from coated stent
# Type: physicochemical
# Settings: base coat podophyllotoxin, Cyclops-12, in THF; Cyclops-9 cap coat with THF as cap coat solvent (FIG. 6) vs acetone (FIG. 5)
# Source text: The cap coating examples may be compatible with a variety of base coats of the present invention. In one embodiment, the cap coat provided by example 9 (e.g., Cyclops-9 in acetone) may be used with a base coat provided by example 6 (e.g., Resten-NG, PVPP, in methanol-water mix). The use of a cap coat may influence the release profile of the therapeutic agent, or drug. […] The stent is base coated with a Resten-NG, PVPP in methanol/water mixed solvent and (optionally) cap coated with a Cyclops-9 in acetone mixture.
# In another embodiment, the cap coat provided by example 9 (e.g., Cyclops-9 in acetone or THF) may be used with a base coat provided by example 8 (e.g., podophyllotoxin, Cyclops-12, in THF). Depending on the solvent chosen for the cap coat (e.g., acetone or THF), a different drug release profile may be obtained. […] Thus, the drug release profile may be altered by using a different cap coat solvent.
smiles,measurement,value
COc1cc([C@@H]2c3cc4c(cc3[C@H](O)[C@H]3COC(=O)[C@H]23)OCO4)cc(OC)c1OC [podophyllotoxin],elution rate (percent drug eluted over time),marked increase in elution rate
